Results as given in ChEMBL document CHEMBL4118129, “Evaluation of novel TGR5 agonist in combination with Sitagliptin for possible treatment of type 2 diabetes” (Bioorg Med Chem Lett, 2018).

How the values were obtained:
Assay type in all cases: ADME, organism-based
[1] = Cmax in C57BL/6 mouse at 30 mg/kg, po by LC-MS/MS analysis; parameters: dose 30 mg/kg, route oral; settings: in vivo
[2] = AUC in C57BL/6 mouse at 30 mg/kg, po by LC-MS/MS analysis; settings: in vivo
[3] = Terminal half life in C57BL/6 mouse at 30 mg/kg, po by LC-MS/MS analysis; settings: in vivo, read-out: beta t1/2 (converted)
[4] = Tmax in C57BL/6 mouse at 30 mg/kg, po by LC-MS/MS analysis; settings: in vivo

Cmax [1]: 2100 nM
AUC [2]: 2.5 µM·h
half-life [3]: 60 min
Tmax [4]: 12 min
SMILES: COc1ccc(C(C)(C)c2cnc(SCCOCc3ccc(C#N)cc3)n2-c2ccc(F)cc2)cc1OC
